Reference: patent publication US20240270821A1, “GIP/GLP1/GCG TRI-RECEPTOR AGONISTS AND USES THEREOF” (priority 2023, published 2024)
Starred links: 1 amine or outer side, 2 acyl side, 3 side chain; linkers in the order of their positions; H or OH if unused. Non-standard residues stand in square brackets, D forms with d. Groups on a side chain read outwards from the residue. *: point of attachment. C18 diacid = O=C(O)CCCCCCCCCCCCCCCCC(=O)*; γGlu = O=C(O)[C@H](CCC(=O)[*:2])N[*:1]; αMe4Pal = C[C@](N)(Cc1ccncc1)C(=O)O; αMeY = C[C@](N)(Cc1ccc(O)cc1)C(=O)O; 4Pal = N[C@@H](Cc1ccncc1)C(=O)O; αMeL = CC(C)C[C@](C)(N)C(=O)O; Orn = NCCC[C@H](N)C(=O)O; AEEA = NCCOCCOCC(=O)O; Aib = CC(C)(N)C(=O)O

Legend:
Format in all cases: cell-based
hGIPR [1] = biological target: T1, hGIPR (Homo sapiens, UniProt P48546); assay: Functional cAMP activation in the presence of 0.1% casein (no HSA); conditions: in the presence of 0.1% casein (no HSA); geometric mean; read-out: Relative cAMP EC50, hGIPR;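 also: intracellular cAMP rise after 30 min at 37 °C read by HTRF against a standard curve, scaled between buffer alone (0%) and top control ligand concentration (100%), four-parameter fit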
T1 sequence (P48546 22-466): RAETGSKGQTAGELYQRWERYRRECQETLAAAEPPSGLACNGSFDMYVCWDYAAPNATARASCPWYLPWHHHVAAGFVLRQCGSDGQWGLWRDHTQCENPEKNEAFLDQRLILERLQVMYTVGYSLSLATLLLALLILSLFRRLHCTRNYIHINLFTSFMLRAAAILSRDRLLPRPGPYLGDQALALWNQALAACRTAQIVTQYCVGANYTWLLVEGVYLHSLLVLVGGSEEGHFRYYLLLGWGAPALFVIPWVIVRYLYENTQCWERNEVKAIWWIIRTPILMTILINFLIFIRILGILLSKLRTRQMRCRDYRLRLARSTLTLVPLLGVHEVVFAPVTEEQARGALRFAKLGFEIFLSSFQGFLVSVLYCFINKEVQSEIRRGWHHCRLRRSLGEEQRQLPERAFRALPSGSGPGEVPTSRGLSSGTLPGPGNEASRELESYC

hGIPR [2] = biological target: T1, hGIPR; assay: Functional cAMP activity in the presence of 1% HSA; conditions: read-out: cAMP Rel EC50, hGIPR
human GcgR = human GcgR (Homo sapiens, UniProt P47871); assay: Functional cAMP activity in the presence of 1% HSA; conditions: read-out: cAMP Rel EC50, hGcgR
hGLP-1R [3] = biological target: T2, hGLP-1R (Homo sapiens, UniProt P43220); assay: Functional cAMP activity in the presence of 1% HSA; conditions: read-out: cAMP Rel EC50, hGLP-1R
hGcgR = hGcgR (Homo sapiens, UniProt P47871); assay: Functional cAMP activation in the presence of 0.1% casein (no HSA); conditions: in the presence of 0.1% casein (no HSA); geometric mean; read-out: Relative cAMP EC50, hGcgR;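 also: intracellular cAMP rise after 30 min at 37 °C, read by HTRF against a cAMP standard curve, scaled from buffer only (0%) to maximal control ligand response (100%)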
hGLP-1R [4] = biological target: T2, hGLP-1R; assay: as above; conditions: in the presence of 0.1% casein (no HSA); geometric mean; read-out: Relative cAMP EC50, hGLP-1R
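For Relative cAMP EC50, hGLP-1R in this document: intracellular cAMP rise after 30 min at 37 °C read by HTRF, normalized between buffer only (0%) and maximal control ligand (100%), four-parameter variable-slope fit.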

T2 sequence (P43220 24-463): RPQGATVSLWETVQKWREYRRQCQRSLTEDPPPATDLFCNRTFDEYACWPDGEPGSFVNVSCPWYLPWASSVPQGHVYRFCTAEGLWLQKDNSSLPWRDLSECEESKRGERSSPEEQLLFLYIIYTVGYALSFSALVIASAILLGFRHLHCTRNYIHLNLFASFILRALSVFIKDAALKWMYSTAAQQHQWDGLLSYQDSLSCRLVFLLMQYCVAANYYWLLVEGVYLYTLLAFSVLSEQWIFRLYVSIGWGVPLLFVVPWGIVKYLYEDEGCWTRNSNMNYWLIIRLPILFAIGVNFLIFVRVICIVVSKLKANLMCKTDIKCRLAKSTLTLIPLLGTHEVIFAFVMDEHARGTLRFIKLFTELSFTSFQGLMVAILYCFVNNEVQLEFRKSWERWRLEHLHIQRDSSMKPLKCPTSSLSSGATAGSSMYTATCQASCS
human GcgR, sequence (P47871 26-477): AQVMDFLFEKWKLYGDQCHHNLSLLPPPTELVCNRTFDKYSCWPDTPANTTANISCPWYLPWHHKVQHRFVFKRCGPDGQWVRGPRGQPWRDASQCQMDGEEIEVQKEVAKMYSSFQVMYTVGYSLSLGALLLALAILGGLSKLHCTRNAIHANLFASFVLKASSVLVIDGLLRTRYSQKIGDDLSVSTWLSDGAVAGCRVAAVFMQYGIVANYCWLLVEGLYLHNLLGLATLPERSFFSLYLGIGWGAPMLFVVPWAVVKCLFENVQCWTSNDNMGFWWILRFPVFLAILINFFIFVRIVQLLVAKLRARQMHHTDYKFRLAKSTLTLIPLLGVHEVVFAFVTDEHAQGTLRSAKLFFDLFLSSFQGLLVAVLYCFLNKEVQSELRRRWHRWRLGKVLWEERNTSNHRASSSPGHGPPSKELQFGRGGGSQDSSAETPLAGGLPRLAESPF
hGcgR, sequence (P47871 26-477): as above

Substance	EC50 (hGIPR [1]) [nM]	EC50 (hGIPR [2]) [nM]	EC50 (human GcgR) [nM]	EC50 (hGLP-1R [3]) [nM]	EC50 (hGcgR) [nM]	EC50 (hGLP-1R [4]) [nM]
H-Y[Aib]QGTFTSD[4Pal]SQ[αMeL]LDKK([γGlu-γGlu-C18 diacid])AQ[αMe4Pal]AFIE[αMe4Pal]LIE[Aib]GPSSGEPPPSGE-NH2 [Example 1123]	0.101	3.89	441	191	5.53	4.47
H-Y[Aib]QGTFTSD[4Pal]SQ[αMeL]LDKK([γGlu-γGlu-C18 diacid])AQ[αMe4Pal]AFIE[αMe4Pal]LIE[Aib]GPSSGEPPPSGEEE-NH2 [Example 1124]	0.187	12	400	304	6.97	10.1
H-Y[Aib]QGTFTSD[4Pal]SQ[αMeL]LDKK([γGlu-γGlu-C18 diacid])AQ[αMe4Pal]AFIE[αMe4Pal]LIE[Aib]GPSSGEPPPSGSEE-NH2 [Example 1125]	0.173	3.95	264	243	5.83	8.26
H-Y[Aib]QGTFTSD[4Pal]SQ[αMeL]LDKK([γGlu-γGlu-C18 diacid])AQ[αMe4Pal]QFIE[αMeY]LIEGGPSSGAPPPSGS-NH2 [Example 934]	0.0738	28.1	1380	175	2.73	0.649
H-Y[Aib]QGTFTSD[4Pal]SQ[αMeL]LDKK([γGlu-γGlu-γGlu-C18 diacid])AQ[αMe4Pal]AFIEYLIE[Aib]GPSSGAPPPSGS-NH2 [Example 859]	0.12	32.3	2250	543	8.45	2.38
H-Y[Aib]QGTFTSD[4Pal]SQ[αMeL]LD[Orn]K([AEEA-γGlu-C18 diacid])AQ[Aib]AFIE[αMeY]LIEGGPSSGAPPPSGS-NH2 [Example 850]	0.346	27	3660	57.8	28.4	0.451
H-Y[Aib]QGTFTSD[4Pal]SQ[αMeL]LD[Orn]K([AEEA-γGlu-C18 diacid])AQ[Aib]AFIE[αMeY]LLEGGPSSGAPPPSGS-NH2 [Example 911]	0.197	26.6	2390	255	9.53	1.09
H-Y[Aib]QGTFTSD[4Pal]SQ[αMeL]LD[Orn]K([AEEA-γGlu-C18 diacid])AQ[αMe4Pal]AFIEYLIA[Aib]GPSSGEPPPSGSEE-NH2 [Example 1095]	0.065	8.73	337	159	2.75	1.17
H-Y[Aib]QGTFTSD[4Pal]SQ[αMeL]LD[Orn]K([AEEA-γGlu-C18 diacid])AQ[αMe4Pal]AFIEYLIQ[Aib]GPSSGEPPPSGSEE-NH2 [Example 1096]	0.0799	11.6	397	194	3.94	1.47
H-Y[Aib]QGTFTSD[4Pal]SQ[αMeL]LD[Orn]K([AEEA-γGlu-C18 diacid])AQ[αMe4Pal]AFIE[αMeY]LIA[Aib]GPSSGAPPPSGSEE-NH2 [Example 1110]	0.059	5.4	449	52	5.91	0.508
H-Y[Aib]QGTFTSD[4Pal]SQ[αMeL]LD[Orn]K([AEEA-γGlu-C18 diacid])AQ[αMe4Pal]AFIE[αMeY]LIA[Aib]GPSSGEPPPSGSEE-NH2 [Example 1099]	0.076	8.64	472	75.8	3.47	0.73
H-Y[Aib]QGTFTSD[4Pal]SQ[αMeL]LD[Orn]K([AEEA-γGlu-C18 diacid])AQ[αMe4Pal]AFIE[αMeY]LIEGGPSSGAPPPSGS-NH2 [Example 849]	0.306	36.6	1160	111	6.66	0.661
H-Y[Aib]QGTFTSD[4Pal]SQ[αMeL]LD[Orn]K([AEEA-γGlu-C18 diacid])AQ[αMe4Pal]AFIE[αMeY]LIEGGPSSGAPPPSGSEE-NH2 [Example 1041]	0.365	75.7	1720	316	7.71	1.24
H-Y[Aib]QGTFTSD[4Pal]SQ[αMeL]LD[Orn]K([AEEA-γGlu-C18 diacid])AQ[αMe4Pal]AFIE[αMeY]LIE[Aib]GPSSGAPPPSGSEE-NH2 [Example 1108]	0.0507	5.22	468	76.2	4.96	0.752
H-Y[Aib]QGTFTSD[4Pal]SQ[αMeL]LD[Orn]K([AEEA-γGlu-C18 diacid])AQ[αMe4Pal]AFIE[αMeY]LIE[Aib]GPSSGEPPPSGSEE-NH2 [Example 1097]	0.136	27.3	752	141	6.16	1.59
H-Y[Aib]QGTFTSD[4Pal]SQ[αMeL]LD[Orn]K([AEEA-γGlu-C18 diacid])AQ[αMe4Pal]AFI[dE][αMeY]LIEGGPSSGAPPPSGSEE-NH2 [Example 1042]	1.3	84.8	1890	642	27.5	10.3
H-Y[Aib]QGTFTSD[4Pal]SQ[αMeL]LD[Orn]K([AEEA-γGlu-C18 diacid])AQ[αMe4Pal]QFIE[αMeY]LIA[Aib]GPSSGEPPPSGSEE-NH2 [Example 1100]	0.0694	9.04	577	77.2	5.28	0.514
H-Y[Aib]QGTFTSD[4Pal]SQ[αMeL]LD[Orn]K([AEEA-γGlu-C18 diacid])AQ[αMe4Pal]QFIE[αMeY]LIEGGPSSGAPPPSGS-NH2 [Example 857]	0.441	36.1	1050	87.3	6.21	0.433
H-Y[Aib]QGTFTSD[4Pal]SQ[αMeL]LD[Orn]K([AEEA-γGlu-C18 diacid])AQ[αMe4Pal]QFIE[αMeY]LIEGGPSSGAPPPSGSEE-NH2 [Example 1045]	0.781	107	1540	276	7.35	1.51
H-Y[Aib]QGTFTSD[4Pal]SQ[αMeL]LD[Orn]K([AEEA-γGlu-γGlu-C18 diacid])AQ[αMe4Pal]AFIEYLIE[dA]GPSSGEPPPSGS-NH2 [Example 1018]	0.51	14.1	568	163	5.29	1.69
H-Y[Aib]QGTFTSD[4Pal]SQ[αMeL]LD[Orn]K([Glu-γGlu-C18 diacid])AQ[αMe4Pal]AFIQ[αMeY]LIEGGPSSGAPPPSGSEEE-NH2 [Example 1077]	0.23	27.8	3160	408	18.8	1.48
H-Y[Aib]QGTFTSD[4Pal]SQ[αMeL]LD[Orn]K([dE-γGlu-C18 diacid])AQ[αMe4Pal]AFIE[αMeY]LIAGGPSSGAPPPSGSEE-NH2 [Example 1074]	0.0745	8.49	1990	101	22.8	0.794
H-Y[Aib]QGTFTSD[4Pal]SQ[αMeL]LD[Orn]K([dE-γGlu-C18 diacid])AQ[αMe4Pal]AFIE[αMeY]LIE[Aib]GPSSGEPPPSGSEE-NH2 [Example 1103]	0.0723	19.5	1350	183	11.1	1.06
H-Y[Aib]QGTFTSD[4Pal]SQ[αMeL]LD[Orn]K([dE-γGlu-C18 diacid])AQ[αMe4Pal]AFIE[αMeY]LLAGGPSSGAPPPSGSEEE-NH2 [Example 1082]	0.099	12.3	1530	677	12.3	4.13
H-Y[Aib]QGTFTSD[4Pal]SQ[αMeL]LD[Orn]K([dE-γGlu-C18 diacid])AQ[αMe4Pal]AFIQ[αMeY]LIA[Aib]GPSSGEPPPSGGGE-NH2 [Example 1130]	0.0441	3.73	1240	44.5	13.3	0.641
H-Y[Aib]QGTFTSD[4Pal]SQ[αMeL]LD[Orn]K([dE-γGlu-C18 diacid])AQ[αMe4Pal]QFIE[αMeY]LLAGGPSSGAPPPSGSEEE-NH2 [Example 1084]	0.0975	17.2	1390	761	11.5	10.3
